# Target: Recombinant human ATX (Homo sapiens (Human), UniProt Q13822)
# Test: ATX inhibition assay (choline release, Amplex Red fluorescence)
# Format: biochemical
# Conditions: ATX 10 nM, LPC 18:1 10 μM, 37° C., 20 min pre-incubation; mean of n≧2
# Summary of the method: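 Activity was taken from the slope of resorufin fluorescence (530/590 nm, read every 2 min for 40 min at 37 °C) produced by choline liberated from 10 μM oleoyl LPC.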
row,SMILES,IC50 [nM]
1,"Cc1nnn(Cc2cc(F)c(F)cc2/C=C/C(=O)N2CCC(Cc3nnc(C)o3)CC2)n1 [Example 42, (E)-3-(4,5-Difluoro-2-((5-methyl-2H-tetrazol-2-yl)methyl)phenyl)-1-(4-((5-methyl-1,3,4-oxadiazol-2-yl)methyl)piperidin-1-yl)prop-2-en-1-one]",436
2,"Cc1nnn(Cc2cc(Cl)ccc2/C=C/C(=O)N2CCC(CCc3nnc(C)o3)CC2)n1 [Example 20, (E)-3-(4-Chloro-2-((5-methyl-2H-tetrazol-2-yl)methyl)phenyl)-1-(4-(2-(5-methyl-1,3,4-oxadiazol-2-yl)ethyl)piperidin-1-yl)prop-2-en-1-one]",163
3,"Cc1nnn(Cc2cc(OC(F)(F)F)ccc2/C=C/C(=O)N2CCC(c3nnc(C)o3)CC2)n1 [Example 54, (E)-1-(4-(5-Methyl-1,3,4-oxadiazol-2-yl)piperidin-1-yl)-3-(2-((5-methyl-2H-tetrazol-2-yl)methyl)-4-(trifluoromethoxy)phenyl)prop-2-en-1-one]",8.9
4,"Cc1nnn(Cc2cc(Cl)ccc2/C=C/C(=O)N2CCCC(c3nc(C(C)C)no3)C2)n1 (single isomer, unassigned) [Example 34a, (R or S, E)-3-(4-Chloro-2-((5-methyl-2H-tetrazol-2-yl)methyl)phenyl)-1-(3-(3-isopropyl-1,2,4-oxadiazol-5-yl)piperidin-1-yl)prop-2-en-1-one]",18
5,"Cc1nnn(Cc2cc(OC(F)F)ccc2/C=C/C(=O)N2CCC(Cc3nnc(C)o3)CC2)n1 [Example 58, (E)-3-(4-(Difluoromethoxy)-2-((5-methyl-2H-tetrazol-2-yl)methyl)phenyl)-1-(4-((5-methyl-1,3,4-oxadiazol-2-yl)methyl)piperidin-1-yl)prop-2-en-1-one]",53
6,"Cc1nnn(Cc2cc(Cl)ccc2/C=C/C(=O)N2CCC(OCC(=O)N3CCCCC3)CC2)n1 [Example 49.10, (E)-3-(4-Chloro-2-((5-methyl-2H-tetrazol-2-yl)methyl)phenyl)-1-(4-(2-oxo-2-(piperidin-1-yl)ethoxy)piperidin-1-yl)prop-2-en-1-one]",24
7,"CCNC(=O)COC1CCCN(C(=O)/C=C/c2ccc(Cl)cc2Cn2nnc(C)n2)C1 (centres unmarked) [Example 49.22, (E)-2-((1-(3-(4-Chloro-2-((5-methyl-2H-tetrazol-2-yl)methyl)phenyl)acryloyl)piperidin-3-yl)oxy)-N-ethylacetamide]",110
8,"Cc1nnn(Cc2cc(C(F)(F)F)ccc2/C=C/C(=O)N2CCCCC2c2noc(C)n2)n1 (single isomer, unassigned) [Example 38a, (R or S, E)-1-(2-(5-Methyl-1,2,4-oxadiazol-3-yl)piperidin-1-yl)-3-(2-((5-methyl-2H-tetrazol-2-yl)methyl)-4-(trifluoromethyl)phenyl)prop-2-en-1-one]",20
9,"Cc1nnn(Cc2cccc(Cl)c2/C=C/C(=O)N2CCC(Cc3nnc(C)o3)CC2)n1 [Example 46, (E)-3-(2-Chloro-6-((5-methyl-2H-tetrazol-2-yl)methyl)phenyl)-1-(4-((5-methyl-1,3,4-oxadiazol-2-yl)methyl)piperidin-1-yl)prop-2-en-1-one]",204
10,"Cc1cnn(CCC2CCN(C(=O)/C=C/c3ccc(Cl)cc3Cn3nnc(C)n3)CC2)c1 [Example 33, (E)-3-(4-Chloro-2-((5-methyl-2H-tetrazol-2-yl)methyl)phenyl)-1-(4-(2-(4-methyl-1H-pyrazol-1-yl)ethyl)piperidin-1-yl)prop-2-en-1-one]",53
11,"C/C(=C\C(=O)N1CCC(c2nnc(C)o2)CC1)c1ccc(Cl)cc1Cn1nnc(C)n1 [Example 39, (E)-3-(4-Chloro-2-((5-methyl-2H-tetrazol-2-yl)methyl)phenyl)-1-(4-(5-methyl-1,3,4-oxadiazol-2-yl)piperidin-1-yl)but-2-en-1-one]",75
12,"Cc1nnn(Cc2cc(Cl)ccc2/C=C/C(=O)N2CCC(n3nccn3)CC2)n1 [Example 22, (E)-1-(4-(2H-1,2,3-Triazol-2-yl)piperidin-1-yl)-3-(4-chloro-2-((5-methyl-2H-tetrazol-2-yl)methyl)phenyl)prop-2-en-1-one]",26
13,"Cc1nnn(Cc2cc(Cl)ccc2/C=C/C(=O)N2CCC(C(O)c3ccc(Cl)cc3)CC2)n1 (racemic) [Example 66, rac-(E)-3-(4-Chloro-2-((5-methyl-2H-tetrazol-2-yl)methyl)phenyl)-1-(4-((4-chlorophenyl)(hydroxy)methyl)piperidin-1-yl)prop-2-en-1-one]",6
14,"Cc1nnn(Cc2cc(Cl)ccc2/C=C/C(=O)N2CC3CCC2CN3Cc2coc(C)n2)n1 (centres unmarked) [Example 61, (E)-3-(4-Chloro-2-((5-methyl-2H-tetrazol-2-yl)methyl)phenyl)-1-(5-((2-methyloxazol-4-yl)methyl)-2,5-diazabicyclo[2.2.2]octan-2-yl)prop-2-en-1-one]",45
15,"Cc1nnn(Cc2cc(C(F)F)ccc2/C=C/C(=O)N2CCC(c3noc(C)n3)CC2)n1 [Example 55, (E)-3-(4-(Difluoromethyl)-2-((5-methyl-2H-tetrazol-2-yl)methy)phenyl)-1-(4-(5-methyl-1,2,4-oxadiazol-3-yl)piperidin-1-yl)prop-2-en-1-one]",8
16,"Cc1nnn(Cc2cc(Cl)ccc2/C=C/C(=O)N2CCC(CCO)CC2)n1 [Example 49.6, (E)-3-(4-Chloro-2-((5-methyl-2H-tetrazol-2-yl)methyl)phenyl)-1-(4-(2-hydroxyethyl)piperidin-1-yl)prop-2-en-1-one]",110

# Second part, the compound after the results:
row,IC50 [nM],SMILES
1,4.2,"Cc1nnn(Cc2cc(Cl)ccc2/C=C/C(=O)N2CCN(Cc3cnn(C)c3)C[C@H]2C)n1 [Example 73, (R,E)-3-(4-Chloro-2-((5-methyl-2H-tetrazol-2-yl)methyl)phenyl)-1-(2-methyl-4-((1-methyl-1 H-pyrazol-4-yl)methyl)piperazin-1-yl)prop-2-en-1-one]"
2,4.2,"Cc1nnn(Cc2cc(Cl)ccc2/C=C/C(=O)N2CCC(C(O)c3ccc(Cl)cc3)CC2)n1 (single isomer, unassigned) [Example 66a, ((R or S), E)-3-(4-Chloro-2-((5-methyl-2H-tetrazol-2-yl)methyl)phenyl)-1-(4-((4-chlorophenyl)(hydroxy)methyl)piperidin-1-yl)prop-2-en-1-one]"
3,34,"Cc1nnn(Cc2cc(Cl)ccc2/C=C/C(=O)N2CCN(Cc3cnn(C)c3)CC2)n1 [Example 140.9, (E)-3-(4-Chloro-2-((5-methyl-2H-tetrazol-2-yl)methyl)phenyl)-1-(4-((1-methyl-1H-pyrazol-4-yl)methyl)piperazin-1-yl)prop-2-en-1-one]"
4,263,"Cc1nnn(Cc2cc(C(F)(F)F)ccc2/C=C/C(=O)N2CCC[C@H]2C)n1 [Example 117, (R,E)-3-(2-((5-Methyl-2H-tetrazol-2-yl)methyl)-4-(trifluoromethyl)phenyl)-1-(2-methylpyrrolidin-1-yl)prop-2-en-1-one]"
5,49,"Cc1nnn(Cc2cc(Cl)ccc2/C=C/C(=O)N2CCC(CC(=O)N3CCOCC3)CC2)n1 [Example 129, (E)-3-(4-Chloro-2-((5-methyl-2H-tetrazol-2-yl)methyl)phenyl)-1-(4-(2-morpholino-2-oxoethyl)piperidin-1-yl)prop-2-en-1-one]"
6,3.9,"Cc1noc(CN2CCN(C(=O)/C=C/c3ccc(Cl)cc3Cn3nnc(C)n3)[C@H](C)C2)n1 [Example 114, (R,E)-3-(4-Chloro-2-((5-methyl-2H-tetrazol-2-yl)methyl)phenyl)-1-(2-methyl-4-((3-methyl-1,2,4-oxadiazol-5-yl)methyl)piperazin-1-yl)prop-2-en-1-one]"
7,17,"Cc1nnn(Cc2cc(Cl)ccc2/C=C/C(=O)N2CCC(CCNC(=O)c3c[nH]nc3C(F)(F)F)CC2)n1 [Example 146, (E)-N-(2-(1-(3-(4-Chloro-2-((5-methyl-2H-tetrazol-2-yl)methyl)phenyl)acryloyl)piperidin-4-yl)ethyl)-3-(trifluoromethyl)-1H-pyrazole-4-carboxamide]"
8,2,"Cc1nnn(Cc2cc(C(F)(F)F)ccc2/C=C/C(=O)N2CCN(Cc3coc(C)n3)C[C@H]2C)n1 [Example 69, (R,E)-3-(2-((5-Methyl-2H-tetrazol-2-yl)methyl)-4-(trifluoromethyl)phenyl)-1-(2-methyl-4-((2-methyloxazol-4-yl)methyl)piperazin-1-yl)prop-2-en-1-one]"
9,785,"Cc1nnn(Cc2cc(C#N)ccc2/C=C/C(=O)N2CCC(Cc3nnc(C)o3)CC2)n1 [Example 82, (E)-4-(3-(4-((5-Methyl-1,3,4-oxadiazol-2-yl)methyl)piperidin-1-yl)-3-oxoprop-1-en-1-yl)-3-((5-methyl-2H-tetrazol-2-yl)methyl)benzonitrile]"
10,5.3,"Cc1nnn(Cc2cc(C(F)(F)F)ccc2/C=C/C(=O)N2CCC(c3nnc(C4CCC4)o3)CC2)n1 [Example 103, (E)-1-(4-(5-Cyclobutyl-1,3,4-oxadiazol-2-yl)piperidin-1-yl)-3-(2-((5-methyl-2H-tetrazol-2-yl)methyl)-4-(trifluoromethyl)phenyl)prop-2-en-1-one]"
11,33,"Cc1nnn(Cc2cc(C(F)(F)F)ccc2/C=C/C(=O)N2CCN(Cc3nonc3C)CC2)n1 [Example 116, (E)-1-(4-((4-Methyl-1,2,5-oxadiazol-3-yl)methyl)piperazin-1-yl)-3-(2-((5-methyl-2H-tetrazol-2-yl)methyl)-4-(trifluoromethyl)phenyl)prop-2-en-1-one]"
12,16,"Cc1noc(CN2CCN(C(=O)/C=C/c3ccc(C(F)(F)F)cc3Cn3nnc(C)n3)CC2)n1 [Example 88, (E)-1-(4-((3-Methyl-1,2,4-oxadiazol-5-yl)methyl)piperazin-1-yl)-3-(2-((5-methyl-2H-tetrazol-2-yl)methyl)-4-(trifluoromethyl)phenyl)prop-2-en-1-one]"
13,47,"COC[C@@H]1CCCN1C(=O)/C=C/c1ccc(C(F)(F)F)cc1Cn1nnc(C)n1 [Example 111, (S,E)-1-(2-(Methoxymethyl)pyrrolidin-1-yl)-3-(2-((5-methyl-2H-tetrazol-2-yl)methyl)-4-(trifluoromethyl)phenyl)prop-2-en-1-one]"

# Reference: patent US9763957B2, “Autotaxin inhibitors” (Novartis AG, priority 2013, dated 2017)
